PubChem BioAssay (NCI)
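All cell lines were grown in 96-well plates and treated with compound for 48 hours. GI50 marks 50% less growth. At the TGI there is no net growth.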

Assays:
Assay in all cases: inhibition of tumour cell growth, NCI panel, 48 h
MALME-3M melanoma = test system: MALME-3M melanoma
OVCAR-4 ovarian = test system: OVCAR-4 ovarian
NCI/ADR-RES ovarian = test system: NCI/ADR-RES ovarian
BT-549 breast = test system: BT-549 breast
NCI-H460 lung = test system: NCI-H460 lung
SR leukemia = test system: SR leukemia
K-562 leukemia = test system: K-562 leukemia
MDA-MB-435 = test system: MDA-MB-435
OVCAR-3 ovarian = test system: OVCAR-3 ovarian
HOP-62 NSCLC = test system: HOP-62 NSCLC

With CCn1nc(C2CCN(C(=O)CCO)CC2)nc1-c1cnc(N)c(-c2nnc(C(C)(C)C)o2)n1 the GI50 (MALME-3M melanoma) was 3.77 µM, the TGI (MALME-3M melanoma) was > 100 µM and the GI50 (OVCAR-4 ovarian) was 53.7 µM. The TGI (OVCAR-4 ovarian) was > 100 µM, the GI50 (NCI/ADR-RES ovarian) was 14.6 µM and the TGI (NCI/ADR-RES ovarian) was > 100 µM. The GI50 (BT-549 breast) was 7.28 µM, the TGI (BT-549 breast) was > 100 µM and the GI50 (NCI-H460 lung) was 3.9 µM. For the same compound, the TGI (NCI-H460 lung) was > 100 µM, the GI50 (SR leukemia) was 15.5 µM and the TGI (SR leukemia) was > 88.4 µM. The GI50 (K-562 leukemia) was 27.8 µM, the TGI (K-562 leukemia) was > 100 µM and the GI50 (MDA-MB-435) was 13 µM. For the same compound, the TGI (MDA-MB-435) was > 100 µM, the GI50 (OVCAR-3 ovarian) was 7.81 µM and the TGI (OVCAR-3 ovarian) was 38.4 µM. For the same compound, the GI50 (HOP-62 NSCLC) was 5.01 µM and the TGI (HOP-62 NSCLC) was > 100 µM.
Compound COc1cc(OC)c(C(=O)/C=C/c2ccc(C#N)cc2)c(OC)c1 has a GI50 (MALME-3M melanoma) of 2.23 µM, a TGI (MALME-3M melanoma) of 10.3 µM and a GI50 (OVCAR-4 ovarian) of 1.63 µM. The TGI (OVCAR-4 ovarian) was > 50 µM, the GI50 (NCI/ADR-RES ovarian) was 1.4 µM and the TGI (NCI/ADR-RES ovarian) was > 50 µM. It also gave a GI50 (BT-549 breast) of 1.3 µM, a TGI (BT-549 breast) of 5.11 µM and a GI50 (NCI-H460 lung) of 1.35 µM. The TGI (NCI-H460 lung) was 3.94 µM, the GI50 (SR leukemia) was 0.813 µM and the TGI (SR leukemia) was > 50 µM. The GI50 (K-562 leukemia) was 1.54 µM, the TGI (K-562 leukemia) was > 50 µM and the GI50 (MDA-MB-435) was 1.32 µM. The TGI (MDA-MB-435) was 6.69 µM, the GI50 (OVCAR-3 ovarian) was 1.77 µM and the TGI (OVCAR-3 ovarian) was 7.93 µM. The GI50 (HOP-62 NSCLC) was 1.44 µM and the TGI (HOP-62 NSCLC) was 4.24 µM.
For O=C(Nc1ccc(I)cc1F)c1cc(Br)ccc1O, the GI50 (MALME-3M melanoma) was 0.379 µM, the TGI (MALME-3M melanoma) was 2 µM and the GI50 (OVCAR-4 ovarian) was 0.442 µM. For the same compound, the TGI (OVCAR-4 ovarian) was > 23.1 µM, the GI50 (NCI/ADR-RES ovarian) was 0.613 µM and the TGI (NCI/ADR-RES ovarian) was 4.5 µM. It also gave a GI50 (BT-549 breast) of 0.37 µM, a TGI (BT-549 breast) of 1.76 µM and a GI50 (NCI-H460 lung) of 0.452 µM. The TGI (NCI-H460 lung) was 8.05 µM, the GI50 (SR leukemia) was 0.564 µM and the TGI (SR leukemia) was > 100 µM. For the same compound, the GI50 (K-562 leukemia) was 0.431 µM, the TGI (K-562 leukemia) was > 100 µM and the GI50 (MDA-MB-435) was 0.652 µM. For the same compound, the TGI (MDA-MB-435) was 4.64 µM, the GI50 (OVCAR-3 ovarian) was 0.457 µM and the TGI (OVCAR-3 ovarian) was 11.3 µM. It also gave a GI50 (HOP-62 NSCLC) of 2.03 µM and a TGI (HOP-62 NSCLC) of 7.04 µM.
